Experimental findings from PMC5003785, “An unusual UMP C-5 methylase in nucleoside antibiotic polyoxin biosynthesis” (Protein & Cell, 2016) are described below.

Series [1] concerns the target T1, PolB (Streptomyces asoensis, UniProt C1IC19).
T1 construct: N-terminal His6-tagged, expressed in E. coli BL21(DE3); FAD-containing; homotetramer
Nature of the series: crystal structure. Format: binding.

For series [2], the target named is T2, SVIThyX2 (Streptomyces viridochromogenes, UniProt D9X6S9).
T2 construct: gene thyX
The experiment in a line: LC-MS methylation assay. In kind it is biochemical. To be noted: NADPH, CH2H4folate; 50 mmol/L Tris-HCl pH 8.0.

Series [3] has as its target T3, ThyX (Streptomyces asoensis, UniProt M1ETU3).
T3 construct: gene thyX_2; recombinant
T3 sequence (M1ETU3 1-246): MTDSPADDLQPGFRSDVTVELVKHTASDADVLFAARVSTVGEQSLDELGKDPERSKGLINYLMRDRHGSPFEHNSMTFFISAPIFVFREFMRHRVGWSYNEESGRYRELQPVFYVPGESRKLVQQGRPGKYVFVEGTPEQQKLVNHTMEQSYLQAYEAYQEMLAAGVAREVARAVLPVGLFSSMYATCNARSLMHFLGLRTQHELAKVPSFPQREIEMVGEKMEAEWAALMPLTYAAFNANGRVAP
The experiment in a line: LC-MS methylation assay. In kind it is biochemical. To be noted: NADPH, CH2H4folate; 50 mmol/L Tris-HCl pH 8.0.

For series [4], the target named is PolB from S. cacaoi (UMP C-5 methylase with thymidylate synthase activity) (S. cacaoi). The experiment in a line: crystal structure; PolB with 4 mmol/L 5-Br dUMP; 1.4 mol/L sodium acetate, 0.1 mol/L sodium cacodylate pH 6.5, 20°C.
Series [5] has the same target. Nature of the series: crystal structure; apo-PolB, space group P2(1), two tetramers in the asymmetric unit; 17% PEG4000, 0.2 mol/L Li2SO4, 0.1 mol/L Tris-HCl pH 8.5, 20°C.
Substrate in series [6]: O=c1ccn([C@@H]2O[C@H](COP(=O)(O)O)[C@@H](O)[C@H]2O)c(=O)[nH]1
The experiment in a line: methylation kinetics. Format: biochemical, Streptomyces asoensis. To be noted: NADPH and CH2H4folate co-substrates, assay buffer 50 mmol/L Tris-HCl pH 8.0.

Substrate in series [7]: O=c1ccn([C@H]2C[C@H](O)[C@@H](COP(=O)(O)O)O2)c(=O)[nH]1
Nature of the series: methylation kinetics. Format: biochemical, Streptomyces asoensis. Particulars: NADPH and CH2H4folate co-substrates, assay buffer 50 mmol/L Tris-HCl pH 8.0.

T2 sequence (D9X6S9 entry or part of it): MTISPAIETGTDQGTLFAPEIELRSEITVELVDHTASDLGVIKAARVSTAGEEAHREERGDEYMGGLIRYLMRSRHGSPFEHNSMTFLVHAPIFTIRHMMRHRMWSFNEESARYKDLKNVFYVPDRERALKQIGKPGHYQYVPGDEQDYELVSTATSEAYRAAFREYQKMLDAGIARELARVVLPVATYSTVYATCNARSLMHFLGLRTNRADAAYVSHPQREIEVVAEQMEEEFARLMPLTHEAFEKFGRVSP

`O=c1[nH]c(=O)n([C@@H]2O[C@H](COP(=O)(O)O)[C@@H](O)[C@H]2O)cc1Br` [5-Br UMP]: in series [1] (1.76 Å, substrate analog in active site), the crystal structure result is “structures in complex with substrate analogs 5-Br dUMP and 5-Br UMP”.

Turning to `O=c1[nH]c(=O)n([C@H]2C[C@H](O)[C@@H](COP(=O)(O)O)O2)cc1Br` [5-Br dUMP], the crystal structure result in series [1] (2.28 Å, substrate analog in active site, stacked on FAD isoalloxazine) was “structures in complex with substrate analogs 5-Br dUMP and 5-Br UMP”.

Take `Cc1cc2nc3c(=O)[nH]c(=O)nc-3n(C[C@H](O)[C@H](O)[C@H](O)COP(=O)(O)OP(=O)(O)OC[C@H]3O[C@@H](n4cnc5c(N)ncnc54)[C@H](O)[C@@H]3O)c2cc1C` [FAD]: the crystal structure in series [1] (bound flavin in the 5-Br dUMP complex) is listed as 5-Br dUMP poses strong π-π interaction with the isoalloxazine moiety of FAD.

Turning to `O=c1ccn([C@@H]2O[C@H](COP(=O)(O)O)[C@@H](O)[C@H]2O)c(=O)[nH]1` [UMP], the LC-MS methylation assay result in series [2] was “SVIThyX2 was able to catalyze the methylation for both UMP and dUMP”.

As for `O=c1ccn([C@H]2C[C@H](O)[C@@H](COP(=O)(O)O)O2)c(=O)[nH]1` [dUMP], the LC-MS methylation assay entry was “recombinant S. cacaoi ThyX could catalyze the methylation of dUMP but not UMP” in series [3]; “SVIThyX2 was able to catalyze the methylation for both UMP and dUMP” in series [2].

One may read the stoichiometry N as the number of molecules, sites or subunits per partner or assembly. Regarding “PolB from S. cacaoi (UMP C-5 methylase with thymidylate synthase activity) (enzyme)”, the stoichiometry N in series [4] and in series [5] was 4 each time.

B1: PolB (Streptomyces asoensis) (protein)
chain: MESPRIELRSDITVELVDSSASDLAVVKAARVSTAGEDANDELYDGGSTRGLIRYLMRSRHGSPFEHNSMTFLVRAPIFTVRHLMRHRTWSFNEESARYREVGAAFYVPDATRLLRQEGKPGDYRYVGGSTDDHQQVVRSATRAYEVAFEEYQRLLDSGIAREIARLVLPVSTYSVLYATCNARALMHFLSLRTHRPDAAYVSHPQREIEMVAEQMETAWAKLMPVTHEAFTAFGRVSP
notes: N-terminal His6-tagged, expressed in E. coli BL21(DE3); FAD-containing; homotetramer
For orientation: Km means the substrate concentration at which the rate is half of its maximum. As usually defined, the kcat is the maximal rate divided by the concentration of active sites. As to B1, the Km amounted to 19.48 ± 4.15 µM in series [6] and 12.96 ± 0.89 µM in series [7]. Moreover, the kcat in series [6] was 0.0515 ± 0.00283 s⁻¹; in series [7] it was 0.029 ± 0.00083 s⁻¹.
